Values of other authors in patent US20050227929A1, “Combination therapy comprising a Cox-2 inhibitor and an antineoplastic agent” (priority 2003, published 2005).
Read-outs that look alike come from different tables or passages of the source. Where a SMILES comes first, the peptide text is derived from it.

Columns and labels:
[1] = human, in vivo
tumors = settings: tumor-bearing mice received 225-300 μg/kg over 5 days

Molecule: Cc1ccc2nc(N)[nH]c(=O)c2c1Sc1ccncc1 [nolatrexed, 2-amino-6-methyl-5-(4-pyridinylthio)-4(1H)-quinazolinone]
- Dosage: tolerability [1]: tumors is well

Molecule: COc1ccc(NS(=O)(=O)c2c(F)c(F)c(F)c(F)c2F)cc1F [T138067, 2,3,4,5,6-pentafluoro-N-(3-fluoro-4-methoxyphenyl)benzenesulfonamide]
- Dosage: tolerability (up to 440 mg/m^2 by 3-hour infusion every 4 weeks): well tolerated

Molecule: CC(C)[C@H]1C(=O)N[C@@H](CCCN=C(N)N)C(=O)NCC(=O)N[C@@H](CC(=O)O)C(=O)N[C@H](Cc2ccccc2)C(=O)N1C [cilengitide, cyclo(L-arginylglycyl-L-alpha-aspartyl-D-phenylalanyl-N-methyl-L-valyl)]
- Toxicity [1]: well tolerated and safe

Molecule: Nc1ccn([C@@H]2O[C@H](CO)[C@@H](O)/C2=C\F)c(=O)n1 [tezacitabine]
- Toxicity [1]: generally

Molecule: Cc1occc(=O)c1[O-].Cc1occc(=O)c1[O-].Cc1occc(=O)c1[O-].[Ga+3] [gallium maltolate]
- Toxicity (in vivo): good safety

Molecule: O=S1(=O)CCN(CN2CCS(=O)(=O)NC2)CN1 [taurolidine, 4,4′-methylenebis[tetrahydro-2H-1,2,4-thiadiazine]1,1,1′,1′-tetraoxide]
- Dosage: tolerability (in vivo, 350 mg/kg/day): well tolerated

Molecule: CNC(=O)c1cc(Oc2ccc(NC(=O)Nc3ccc(Cl)c(C(F)(F)F)c3)cc2)ccn1 [BAY-439006]
- Toxicity (dosage listed: 50-400 mg/day): well tolerated

Molecule: N[C@@H](CCC(=O)O)C(=O)N[C@@H](Cc1c[nH]c2ccccc12)C(=O)O [IM 862, L-alpha-glutamyl-L-tryptophan] (H-Glu-Trp-OH)
- Toxicity (in vivo): no hematological

B1: SB-408075 (conjugate, chains of the INN, looked up)
VH: QVQLVQSGAEVKKPGETVKISCKASDYTFTYYGMNWVKQAPGQGLKWMGWIDTTTGEPTYAQKFQGRIAFSLETSASTAYLQIKSLKSEDTATYFCARRGPYNWYFDVWGQGTTVTVSS
VL: DIVMTQSPLSVPVTPGEPVSISCRSSKSLLHSNGNTYLYWFLQRPGQSPQLLIYRMSNLVSGVPDRFSGSGSGTAFTLRISRVEAEDVGVYYCLQHLEYPFTFGPGTKLELK
modifications: DM1 maytansinoid payload
- complete responses seen in % of animals (tumors): in 100% of
